According to the NIST ThermoML archive (doi:10.1021/je201310d):
Numbers after ± are expanded uncertainties.

Test: activity coefficient (dimensionless); of the first substance listed, at infinite dilution; xn = mol fraction of the nth substance listed
Details: 101 kPa, Liquid, Chromatography, x1 = 0

SMILES	activity coefficient (313.15 K)	activity coefficient (323.15 K)	activity coefficient (333.15 K)	activity coefficient (343.15 K)	activity coefficient (353.15 K)	activity coefficient (363.15 K)
CC1CCCCC1 [methylcyclohexane] + CCCCOP(=O)([O-])OCCCC.CCCCn1cc[n+](C)c1	3.7 ± 0.22	3.61 ± 0.21	3.54 ± 0.21	3.48 ± 0.21	3.41 ± 0.2	3.35 ± 0.2
CCCCCCC [heptane] + CCCCOP(=O)([O-])OCCCC.CCCCn1cc[n+](C)c1	5.5 ± 0.33	5.38 ± 0.32	5.29 ± 0.31	5.21 ± 0.31	5.12 ± 0.3	5.05 ± 0.3
Cc1ccc(C)cc1 [1,4-dimethylbenzene] + CCCCOP(=O)([O-])OCCCC.CCCCn1cc[n+](C)c1	1.91 ± 0.11	1.86 ± 0.11	1.82 ± 0.11	1.78 ± 0.1	1.75 ± 0.1	1.72 ± 0.1
CCCCC [pentane] + CCCCOP(=O)([O-])OCCCC.CCCCn1cc[n+](C)c1	4.12 ± 0.25	4.05 ± 0.24	3.93 ± 0.23	3.86 ± 0.23	3.79 ± 0.23	3.72 ± 0.22
C1CCCCC1 [cyclohexane] + CCCCOP(=O)([O-])OCCCC.CCCCn1cc[n+](C)c1	3.09 ± 0.18	2.99 ± 0.18	2.84 ± 0.17	2.76 ± 0.16	2.68 ± 0.16	2.59 ± 0.15
C1=CCCCC1 [cyclohexene] + CCCCOP(=O)([O-])OCCCC.CCCCn1cc[n+](C)c1	2.2 ± 0.13	2.15 ± 0.13	2.11 ± 0.13	2.05 ± 0.12	2.02 ± 0.12	1.96 ± 0.12
CCCCCCCCCC [decane] + CCCCOP(=O)([O-])OCCCC.CCCCn1cc[n+](C)c1	10 ± 0.6	9.65 ± 0.58	9.16 ± 0.55	8.78 ± 0.52	8.54 ± 0.51	8.25 ± 0.49
CC(C)CC(C)(C)C [2,2,4-trimethylpentane] + CCCCOP(=O)([O-])OCCCC.CCCCn1cc[n+](C)c1	6.2 ± 0.37	6.12 ± 0.36	6.06 ± 0.36	6.01 ± 0.36	5.94 ± 0.35	5.88 ± 0.35
Cc1ccccc1 [toluene] + CCCCOP(=O)([O-])OCCCC.CCCCn1cc[n+](C)c1	1.39 ± 0.08	1.35 ± 0.08	1.32 ± 0.07	1.3 ± 0.07	1.29 ± 0.07	1.27 ± 0.07
CCCCCCCC [octane] + CCCCOP(=O)([O-])OCCCC.CCCCn1cc[n+](C)c1	6.54 ± 0.39	6.43 ± 0.38	6.36 ± 0.38	6.28 ± 0.37	6.21 ± 0.37	6.15 ± 0.37
C=Cc1ccccc1 [styrene] + CCCCOP(=O)([O-])OCCCC.CCCCn1cc[n+](C)c1	1.19 ± 0.07	1.15 ± 0.06	1.09 ± 0.06	1.07 ± 0.06	1.03 ± 0.06	0.98 ± 0.05
c1ccccc1 [benzene] + CCCCOP(=O)([O-])OCCCC.CCCCn1cc[n+](C)c1	1.03 ± 0.06	0.97 ± 0.05	0.93 ± 0.05	0.9 ± 0.05	0.88 ± 0.05	0.85 ± 0.05
CCCCCC [hexane] + CCCCOP(=O)([O-])OCCCC.CCCCn1cc[n+](C)c1	4.73 ± 0.28	4.63 ± 0.28	4.51 ± 0.27	4.45 ± 0.26	4.32 ± 0.26	4.24 ± 0.25
CCCCCCCCC [nonane] + CCCCOP(=O)([O-])OCCCC.CCCCn1cc[n+](C)c1	7.69 ± 0.46	7.47 ± 0.45	7.31 ± 0.44	7.13 ± 0.42	7.02 ± 0.42	6.88 ± 0.41
Cc1ccccc1C [1,2-dimethylbenzene] + CCCCOP(=O)([O-])OCCCC.CCCCn1cc[n+](C)c1	1.8 ± 0.11	1.77 ± 0.1	1.73 ± 0.1	1.71 ± 0.1	1.68 ± 0.1	1.65 ± 0.1
Cc1cccc(C)c1 [1,3-dimethylbenzene] + CCCCOP(=O)([O-])OCCCC.CCCCn1cc[n+](C)c1	1.99 ± 0.12	1.95 ± 0.12	1.92 ± 0.11	1.88 ± 0.11	1.85 ± 0.11	1.83 ± 0.11
